Assays:
[1] = molecular target: CDK7/Cyclin H/MAT1 complex (Homo sapiens, UniProt P50613); experiment: CDK7 kinase inhibition assay (Caliper/LabChip EZ Reader)
[2] = system: COV504 cells; experiment: Inhibition of cell proliferation, CyQUANT Direct, COV504; type: cell-based; details: Homo sapiens; COV504 ovarian cancer cells, 72-hour; read-out: COV 504 proliferation calculated IC50
Experimental: (§1) HCC70 and MB453 cells are cell lines derived from human triple negative breast cancer. COV318 and COV504 cells are cell lines derived from human ovarian cancer. Representative compounds of the invention were tested at different concentrations (from 4 μM to 126.4 pM; 0.5 log serial dilutions) for their ability to inhibit the proliferation of each of these cell lines. Known CDK inhibitors dinaciclib or N-((1S,3R)-3-((5-chloro-4-(1H-indol-3-yl) pyrimidin-2-yl)amino)cyclohexyl)-5-((E)-4-(dimethylamino)but-2-enamido)picolinamide and triptolide were used as positive controls. Cells were seeded at approximately 2,000 cells/well and grown in ATCC-formulated RPMI-1640 Medium (ATCC 30-2001)+10% FBS. The cells were cultured at 37° C. in a humidified chamber in the presence of 5% CO2. Proliferation assays were conducted over a 72-hour time period. CyQUANT® Direct Cell Proliferation Assay (Life Technologies, Chicago, IL USA) was used to assess the anti-proliferative effects of the compounds following manufacturer's directions and utilizing the reagents supplied with the CyQUANT® Direct Cell kit.

[3] = molecular target: CDK2/Cyclin E1 complex (Homo sapiens, UniProt P24941); experiment: CDK2 kinase inhibition assay (Caliper/LabChip EZ Reader)
Experimental: (§2) Compounds of the invention were assayed for inhibition of CDK7, CDK9, CDK12, and CDK2 activity at Biortus Biosciences (Jiangyin, Jiangsu Province, P.R. of China) using kinase assays for each CDK developed with a Caliper/LabChip EZ Reader (Perkin Elmer, Waltham, MA).
(§3) Furthermore, the CDK9 inhibition assay used CDK9/Cyclin T1 complex (8 nM) and “5-FAM-CDK9tide” peptide substrate (2 μM, synthesized fluorophore-labeled peptide with the following sequence: 5-FAM-GSRTPMY-NH2 (SEQ ID NO:2) where 5-FAM is defined above and NH2 signifies a C-terminal amide) with 10 mM MgCl2 in the buffer composition listed above. The CDK12 inhibition assay used CDK12 (aa686-1082)/Cyclin K complex (50 nM) and “5-FAM-CDK9tide” (2 μM) as defined above, with 2 mM MgCl2 in the buffer composition above. Additionally, the CDK2 inhibition assay used CDK2/Cyclin E1 complex (0.5 nM) and “5-FAM-CDK7tide” (2 μM) as defined above, with 2 mM MgCl2 in the buffer composition listed above.
(§4) The incubation period at 27° C. for each CDK inhibition assay was chosen such that the fraction of phosphorylated peptide product produced in each assay, relative to the total peptide concentration, was approximately 20% (±5%) for the uninhibited kinase (35 min. for CDK7, 35 min. for CDK2, 3 hr. for CDK12, 15 min. for CDK9).

[4] = system: HCC70 cells; experiment: Inhibition of cell proliferation, CyQUANT Direct, HCC70; type: cell-based, human; details: Homo sapiens; HCC70 triple negative breast cancer cells, 72-hour; read-out: HCC 70 proliferation calculated IC50
Experimental: as §1

[5] = system: COV318 cells; experiment: Inhibition of cell proliferation, CyQUANT Direct, COV318; type: cell-based; details: Homo sapiens; COV318 ovarian cancer cells, 72-hour; read-out: COV 318 proliferation calculated IC50
Experimental: as §1

[6] = molecular target: CDK12 (aa686-1082)/Cyclin K complex (Homo sapiens, UniProt Q9NYV4); experiment: CDK12 kinase inhibition assay (Caliper/LabChip EZ Reader)
Experimental: as §2, §3, §4

[7] = system: MB453 cells; experiment: Inhibition of cell proliferation, CyQUANT Direct, MB453; type: cell-based, human; details: Homo sapiens; MB453 triple negative breast cancer cells, 72-hour; read-out: MB 453 proliferation calculated IC50
Experimental: as §1

[8] = molecular target: CDK9/Cyclin T1 complex (Homo sapiens, UniProt P50750); experiment: CDK9 kinase inhibition assay (Caliper/LabChip EZ Reader)
CDK9/Cyclin T1 complex, sequence (P50750 whole entry): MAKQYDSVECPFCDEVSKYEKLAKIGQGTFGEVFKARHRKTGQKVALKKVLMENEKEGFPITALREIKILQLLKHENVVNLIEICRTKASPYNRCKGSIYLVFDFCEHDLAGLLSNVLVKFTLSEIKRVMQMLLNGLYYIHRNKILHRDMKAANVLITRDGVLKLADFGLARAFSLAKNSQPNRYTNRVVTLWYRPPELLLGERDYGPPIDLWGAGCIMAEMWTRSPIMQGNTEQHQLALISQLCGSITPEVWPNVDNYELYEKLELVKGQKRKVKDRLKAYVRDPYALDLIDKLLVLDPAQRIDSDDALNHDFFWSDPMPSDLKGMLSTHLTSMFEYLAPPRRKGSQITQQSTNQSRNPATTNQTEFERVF
CDK9/Cyclin T1 complex, sequence (O60563 whole entry partner): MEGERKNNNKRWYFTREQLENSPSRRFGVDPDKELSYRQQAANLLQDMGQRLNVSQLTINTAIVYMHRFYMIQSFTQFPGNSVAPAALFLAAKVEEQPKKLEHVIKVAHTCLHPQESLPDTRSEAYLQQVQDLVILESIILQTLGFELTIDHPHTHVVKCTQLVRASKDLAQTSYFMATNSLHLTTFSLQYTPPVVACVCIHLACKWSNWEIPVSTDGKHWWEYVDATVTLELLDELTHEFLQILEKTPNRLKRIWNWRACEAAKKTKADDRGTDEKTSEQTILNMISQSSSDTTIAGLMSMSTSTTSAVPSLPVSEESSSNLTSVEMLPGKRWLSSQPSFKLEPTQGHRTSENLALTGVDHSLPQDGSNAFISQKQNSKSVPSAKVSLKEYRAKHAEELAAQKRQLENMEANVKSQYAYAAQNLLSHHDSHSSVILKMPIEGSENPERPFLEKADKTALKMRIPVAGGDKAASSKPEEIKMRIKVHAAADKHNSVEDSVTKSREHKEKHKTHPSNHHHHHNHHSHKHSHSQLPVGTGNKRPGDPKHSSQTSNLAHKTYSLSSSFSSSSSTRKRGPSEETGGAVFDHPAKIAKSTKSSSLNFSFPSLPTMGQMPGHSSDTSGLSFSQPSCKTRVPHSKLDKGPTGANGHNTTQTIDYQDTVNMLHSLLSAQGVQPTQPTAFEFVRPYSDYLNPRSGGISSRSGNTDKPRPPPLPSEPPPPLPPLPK
Experimental: as §2, §3, §4

CDK12 (aa686-1082)/Cyclin K complex, sequence (Q9NYV4 686-1082): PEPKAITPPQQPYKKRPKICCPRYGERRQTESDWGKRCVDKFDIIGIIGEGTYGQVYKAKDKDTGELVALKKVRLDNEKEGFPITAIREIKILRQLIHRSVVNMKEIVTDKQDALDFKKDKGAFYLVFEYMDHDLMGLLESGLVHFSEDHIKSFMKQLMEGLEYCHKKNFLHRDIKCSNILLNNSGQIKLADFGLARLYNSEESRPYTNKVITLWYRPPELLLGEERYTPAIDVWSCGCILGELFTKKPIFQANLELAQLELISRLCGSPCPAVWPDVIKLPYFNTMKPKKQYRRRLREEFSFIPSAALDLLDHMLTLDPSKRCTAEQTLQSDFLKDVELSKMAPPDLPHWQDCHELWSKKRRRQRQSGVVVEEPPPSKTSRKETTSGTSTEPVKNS
CDK12 (aa686-1082)/Cyclin K complex, sequence (O75909 whole entry partner, the tested form may be a part): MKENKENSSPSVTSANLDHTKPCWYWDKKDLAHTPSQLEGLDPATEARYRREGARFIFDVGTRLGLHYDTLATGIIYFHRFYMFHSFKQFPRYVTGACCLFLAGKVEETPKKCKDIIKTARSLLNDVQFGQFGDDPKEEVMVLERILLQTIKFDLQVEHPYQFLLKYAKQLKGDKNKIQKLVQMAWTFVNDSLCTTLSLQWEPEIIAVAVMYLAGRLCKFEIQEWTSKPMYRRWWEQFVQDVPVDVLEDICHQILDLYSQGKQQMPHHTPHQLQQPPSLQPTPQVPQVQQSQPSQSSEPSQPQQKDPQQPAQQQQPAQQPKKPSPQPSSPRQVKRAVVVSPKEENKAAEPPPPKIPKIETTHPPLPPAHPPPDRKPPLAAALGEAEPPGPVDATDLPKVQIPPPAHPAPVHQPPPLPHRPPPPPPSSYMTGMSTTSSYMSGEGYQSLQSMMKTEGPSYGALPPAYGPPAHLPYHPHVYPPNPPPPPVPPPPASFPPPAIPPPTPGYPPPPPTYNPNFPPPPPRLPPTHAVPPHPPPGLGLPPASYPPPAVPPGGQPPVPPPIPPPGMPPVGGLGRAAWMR
CDK7/Cyclin H/MAT1 complex, sequence (P50613 whole entry): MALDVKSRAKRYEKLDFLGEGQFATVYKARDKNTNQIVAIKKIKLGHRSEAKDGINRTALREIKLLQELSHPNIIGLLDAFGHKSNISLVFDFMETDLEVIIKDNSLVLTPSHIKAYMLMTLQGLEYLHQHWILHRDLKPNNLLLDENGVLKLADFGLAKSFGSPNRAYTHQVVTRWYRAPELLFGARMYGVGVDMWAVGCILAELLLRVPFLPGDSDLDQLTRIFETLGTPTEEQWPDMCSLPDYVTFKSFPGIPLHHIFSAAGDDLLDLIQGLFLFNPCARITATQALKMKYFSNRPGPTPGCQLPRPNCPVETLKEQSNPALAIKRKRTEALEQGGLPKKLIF
CDK7/Cyclin H/MAT1 complex, sequence (P51946 whole entry partner): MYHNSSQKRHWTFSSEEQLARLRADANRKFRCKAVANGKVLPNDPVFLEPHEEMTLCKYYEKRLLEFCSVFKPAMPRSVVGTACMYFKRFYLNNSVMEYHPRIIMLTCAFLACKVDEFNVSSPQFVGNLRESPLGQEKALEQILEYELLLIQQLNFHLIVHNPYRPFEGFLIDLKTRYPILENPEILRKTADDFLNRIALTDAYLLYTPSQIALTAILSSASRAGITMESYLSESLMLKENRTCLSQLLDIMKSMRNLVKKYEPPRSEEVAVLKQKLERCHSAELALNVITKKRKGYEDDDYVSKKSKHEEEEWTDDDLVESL
CDK7/Cyclin H/MAT1 complex, sequence (P51948 whole entry partner): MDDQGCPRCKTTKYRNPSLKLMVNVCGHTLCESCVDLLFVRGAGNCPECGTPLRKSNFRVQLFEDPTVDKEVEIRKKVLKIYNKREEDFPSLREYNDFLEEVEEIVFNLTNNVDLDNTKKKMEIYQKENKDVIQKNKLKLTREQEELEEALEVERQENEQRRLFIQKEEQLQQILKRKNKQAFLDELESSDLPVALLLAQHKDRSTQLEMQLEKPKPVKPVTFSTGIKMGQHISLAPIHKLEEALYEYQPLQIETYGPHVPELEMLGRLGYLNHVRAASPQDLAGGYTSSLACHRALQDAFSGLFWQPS

SMILES | IC50 [1] | IC50 [2] | IC50 [3] | IC50 [4] | IC50 [5] | IC50 [6] | IC50 [7] | IC50 [8]
N#Cc1ccc2c(-c3nc(N[C@H]4CCC[C@@H]4N4CCCC4)ncc3C(F)(F)F)c[nH]c2c1 [Compound 122] | 0.03 to 0.1 µM | 0.1 to 0.5 µM | > 0.5 µM | 0.1 to 0.5 µM | 0.1 to 0.5 µM | > 0.5 µM | 0.1 to 0.5 µM | > 0.5 µM
COCCN[C@H]1CCC[C@@H]1Nc1ncc(C(F)(F)F)c(-c2c[nH]c3cc(C#N)ccc23)n1 [Compound 123, 3-[2-[[(1S,2S)-2-(2-methoxyethylamino)cyclopentyl]-amino]-5-(trifluoromethyl)pyrimidin-4-yl]-1H-indole-6-carbonitrile] | < 0.03 µM | 0.1 to 0.5 µM | > 0.5 µM | 0.1 to 0.5 µM | 0.1 to 0.5 µM | > 0.5 µM | 0.1 to 0.5 µM | > 0.5 µM
CN(C)[C@H]1CCC[C@@H]1Nc1ncc(C(F)(F)F)c(-c2c[nH]c3cc(C#N)ccc23)n1 [Compound 124] | 0.1 to 0.5 µM | 0.5 to 2 µM | > 0.5 µM | 0.5 to 2 µM | > 2 µM | > 0.5 µM | 0.5 to 2 µM | > 0.5 µM
CC(=O)N[C@H]1CC[C@@H]1Nc1ncc(C(F)(F)F)c(-c2c[nH]c3cc(C#N)ccc23)n1 [Compound 125, N-[(1S,2S)-2-[[4-(6-cyano-1H-indol-3-yl)-5-(trifluoromethyl)pyrimidin-2-yl]-amino]-cyclobutyl]-acetamide] | > 0.5 µM | > 2 µM | > 0.5 µM | > 2 µM | > 2 µM | > 0.5 µM | 0.5 to 2 µM | > 0.5 µM
CN(C)[C@H]1CC[C@@H]1Nc1ncc(C(F)(F)F)c(-c2c[nH]c3cc(C#N)ccc23)n1 [Compound 126, 3-[2-[[(1S,2S)-2-(dimethylamino)cyclobutyl]-amino]-5-(trifluoromethyl)pyrimidin-4-yl]-1H-indole-6-carbonitrile] | 0.03 to 0.1 µM | 0.1 to 0.5 µM | > 0.5 µM | > 2 µM | > 2 µM | > 0.5 µM | 0.1 to 0.5 µM | > 0.5 µM
Cc1noc(C)c1-c1ccc2c(-c3nc(NC4CCCC4N)ncc3C(F)(F)F)c[nH]c2n1 (stereo not shown) [Compound 127] | < 0.03 µM | < 0.1 µM | > 0.5 µM | < 0.1 µM | 0.1 to 0.5 µM | > 0.5 µM | < 0.1 µM | > 0.5 µM
CCN[C@H]1CCC[C@@H]1Nc1ncc(C(F)(F)F)c(-c2c[nH]c3cc(C#N)ccc23)n1 [Compound 128, 3-[2-[[(1S,2S)-2-(ethylamino)cyclopentyl]-amino]-5-(trifluoromethyl)pyrimidin-4-yl]-1H-indole-6-carbonitrile] | < 0.03 µM | < 0.1 µM | > 0.5 µM | < 0.1 µM | 0.1 to 0.5 µM | > 0.5 µM | < 0.1 µM | > 0.5 µM
Cc1noc(C)c1-c1ccc2c(-c3nc(N[C@H]4CC[C@@H]4N)ncc3C(F)(F)F)c[nH]c2n1 [Compound 129, (1S,2S)—N2-[4-[6-(3,5-dimethylisoxazol-4-yl)-1H-pyrrolo[2,3-b]pyridin-3-yl]-5-(trifluoromethyl)pyrimidin-2-yl]-cyclobutane-1,2-diamine] | < 0.03 µM | < 0.1 µM | > 0.5 µM | 0.1 to 0.5 µM | 0.1 to 0.5 µM | > 0.5 µM | < 0.1 µM | > 0.5 µM
N#Cc1ccc2c(-c3nc(N[C@H]4CC[C@@H]4N4CCOCC4)ncc3C(F)(F)F)c[nH]c2c1 [Compound 130] | 0.1 to 0.5 µM | > 2 µM | > 0.5 µM | > 2 µM | > 2 µM | > 0.5 µM | > 2 µM | > 0.5 µM
CCN[C@H]1CC[C@@H]1Nc1ncc(C(F)(F)F)c(-c2c[nH]c3cc(C#N)ccc23)n1 [Compound 131, 3-[2-[[(1S,2S)-2-(ethylamino)cyclobutyl]-amino]-5-(trifluoromethyl)pyrimidin-4-yl]-1H-indole-6-carbonitrile] | < 0.03 µM | 0.1 to 0.5 µM | > 0.5 µM | 0.5 to 2 µM | 0.5 to 2 µM | > 0.5 µM | 0.1 to 0.5 µM | > 0.5 µM
N#Cc1ccc2c(-c3nc(N[C@@H]4CC[C@H]4N4CCOCC4)ncc3C(F)(F)F)c[nH]c2c1 [Compound 132] | > 0.5 µM | > 2 µM | > 0.5 µM | > 2 µM | > 2 µM | > 0.5 µM | > 2 µM | > 0.5 µM
COCCN[C@H]1CC[C@@H]1Nc1ncc(C(F)(F)F)c(-c2c[nH]c3cc(C#N)ccc23)n1 [Compound 133] | 0.03 to 0.1 µM | 0.5 to 2 µM | > 0.5 µM | 0.5 to 2 µM | 0.5 to 2 µM | > 0.5 µM | 0.5 to 2 µM | > 0.5 µM
N#Cc1ccc2c(-c3nc(N[C@H]4CC[C@@H]4N4CCCC4)ncc3C(F)(F)F)c[nH]c2c1 [Compound 135, 3-[2-[[(1S,2S)-2-pyrrolidin-1-ylcyclobutyl]-amino]-5-(trifluoromethyl)pyrimidin-4-yl]-1H-indole-6-carbonitrile] | < 0.03 µM | 0.5 to 2 µM | > 0.5 µM | > 2 µM | > 2 µM | > 0.5 µM | 0.1 to 0.5 µM | > 0.5 µM
Cc1noc(C)c1-c1ccc2c(-c3nc(N[C@@H]4C[C@@H]5CC[C@H]4N5)ncc3C(F)(F)F)c[nH]c2c1 [Compound 137, (1S,2S,4R)—N-[4-[6-(3,5-dimethylisoxazol-4-yl)-1H-indol-3-yl]-5-(trifluoromethyl)pyrimidin-2-yl]-7-azabicyclo-[2.2.1]-heptan-3-amine] | < 0.03 µM | < 0.1 µM | > 0.5 µM | < 0.1 µM | 0.1 to 0.5 µM | > 0.5 µM | < 0.1 µM | > 0.5 µM
Cc1noc(C)c1-c1ccc2c(-c3nc(N[C@H]4C[C@H]5CC[C@@H]4N5)ncc3C(F)(F)F)c[nH]c2n1 [Compound 139] | < 0.03 µM | 0.1 to 0.5 µM | > 0.5 µM | 0.1 to 0.5 µM | 0.5 to 2 µM | > 0.5 µM | 0.1 to 0.5 µM | > 0.5 µM
Cc1noc(C)c1-c1ccc2c(-c3nc(N[C@@H]4C[C@@H]5CC[C@H]4N5)ncc3C(F)(F)F)c[nH]c2n1 [Compound 140] | < 0.03 µM | < 0.1 µM | > 0.5 µM | < 0.1 µM | < 0.1 µM | > 0.5 µM | < 0.1 µM | > 0.5 µM
Cc1noc(C)c1-c1ccc2c(-c3nc(N[C@H]4C[C@H]5CC[N@](CC5)C4)ncc3C(F)(F)F)c[nH]c2n1 [Compound 141, (3S)—N-[4-[6-(3,5-dimethylisoxazol-4-yl)-1H-pyrrolo[2,3-b]pyridin-3-yl]-5-(trifluoromethyl)pyrimidin-2-yl]-1-azabicyclo[3.2.2]nonan-3-amine] | < 0.03 µM | < 0.1 µM | > 0.5 µM | < 0.1 µM | < 0.1 µM | > 0.5 µM | < 0.1 µM | > 0.5 µM

— patent publication US11918592B2, “Inhibitors of cyclin dependent kinase 7 (CDK7)” (Syros Pharmaceuticals, Inc., priority 2018, dated 2024)
